For assay [1], the system named is mABCA1 promoter. In words: NHR-promoter luciferase screen, mABCA1 promoter. The note with it: for Luc. act., normalized to lacZ / Normalized Luc. act., normalized to control: ABCA1 promoter, hormone receptor with or without its ligand; for Normalized Luc. act., normalized to control: relative to control; for mABCA1 promoter reporter activity: transcription factor +/- ligand, control = 1.00. Format: cell-based, mouse. The procedure: (§1) The use, feasibility, and reproducibility of the functional NHR-promoter screen in a 48-well format have been tested validated. Briefly, there were co-expressed 50 ng of each NHR/NHR homodimer or NHR/RXR heterodimer with 100 ng promoter/luciferase construct and 50 ng of LacZ (as a control for transfection efficiency) in CV-1 cells using Fugene HD (Roche) as a transfection reagent (alternatively or additionally, a CMV-YFP construct can be used as a transfection control). Each of the nuclear hormone receptors that were used in these experiments was cloned into a pcDNA3.1 vector and comprised a C-terminally linked V5H6 tag. Twenty-four hours after transfection, appropriate ligands were added, where applicable, (see Table 5 for various ligands and concentrations and after 48 hrs, samples were assayed for luciferase and LacZ activity. To measure for luciferase activity 15 ul of sample was added to 30 ul of luciferase buffer (20 mM tricine, 1.07 mM MgCarbonate, 2.67 mM MgSulfate, 0.1 mM Naz-EDTA, 5 mM DTT, 5 mM ATP, 0.15 mg/ml CoA, 0.5 mM Luciferin), mixed briefly, and run in a Perkin Elmer Victor 5 luminometer. Thus, the functional NHR-promoter screen was used to observe the transcriptional activity of 29 promoters from various physiological pathways including inflammation, lipid and sugar metabolism, cholesterol transport, xenobiotic metabolism, and circadian rhythm.
(§2) The promoters that facilitate transcription of the indicated gene products that were tested using the protocols described herein are listed in the first row of the table. The nuclear hormone receptors and, where applicable, ligands that were assayed for their transcriptional effects on the promoters are listed in the first column of the table. The data represent the luciferase activity of each sample normalized to both the lacZ activity of that sample and to a control, e.g., no NHR or ligand, as customary in the art. As described previously, these normalizations allow the transcriptional activity of each reporter cell to be compared to other samples.
(§3) Tables 7-40 show the transcriptional effects of the hormone receptors, and, where applicable, ligands (orphan receptors are screened without ligand), on each individual promoter. […] The control data of each table are shown in their last rows.

For assay [2], the system named is mCAR promoter. Kind of assay: NHR-promoter luciferase screen, mCAR promoter. Format: cell-based, mouse. The note with it: for luciferase activity normalized to lacZ activity and to a control, mCAR: mCAR promoter-luciferase, CV-1 cells, NHR +/- ligand, control = 1.00; for Luc. act., normalized to lacZ / Normalized Luc. act., normalized to control: mCAR promoter, HR/ligand component. The procedure:
as §1, §2, §3

For assay [3], the system named is mDio2 promoter. In words: NHR-promoter luciferase screen, mDio2 promoter. The note with it: for Luc. act., normalized to lacZ / Normalized Luc. act., normalized to control: Dio2, HR component without or with its ligand; for mDio2 promoter reporter activity: transcription factor +/- ligand, control = 1.00. Format: cell-based, mouse. The protocol:
as §1, §2, §3

Assay [4] relates to mUCP2 promoter. Kind of assay: NHR-promoter luciferase screen, mUCP2 promoter. Format: cell-based, mouse. The note with it: for Luc. act., normalized to lacZ / Normalized Luc. act., normalized to control: mUCP2 promoter reporter, co-transfected HR, with or without its ligand; for Normalized Luc. act., normalized to control: relative to control; for luciferase activity normalized to lacZ activity and to a control, mUCP2: mUCP2 promoter-luciferase, CV-1 cells, NHR +/- ligand, control = 1.00. The protocol: as §1, §2, §3

The subject of assay [5] is hIFNg promoter. Kind of assay: NHR-promoter luciferase screen, hIFNg promoter. Format: cell-based, human. Particulars: for Luc. act., normalized to lacZ / Normalized Luc. act., normalized to control: IFNg promoter, HR component without or with ligand; for hIFNg promoter reporter activity: transcription factor +/- ligand, control = 1.00. The protocol:
as §1, §2, §3

Assay [6] concerns hPPARg2 promoter. Kind of assay: NHR-promoter luciferase screen, hPPARg2 promoter. In kind it is cell-based, human. The note with it: for Luc. act., normalized to lacZ / Normalized Luc. act., normalized to control: PPARG2 promoter, hormone receptor with or without its ligand; for Normalized Luc. act., normalized to control: relative to control; for Results of assays of transcription factor (+/- ligand) with hPPARg2: Table 6d, luciferase activity relative to control (control = 1.00). The protocol: as §1, §2, §3

As for “TLX: Tailless (homolog of drosophila) (NR2E1), cDNA driver”, in assay [1], the “Luc. act., normalized to lacZ” value is recorded as 21.8; the “Normalized Luc. act., normalized to control” value turned out to be 3.9; the “mABCA1 promoter reporter activity” value is 3.88. For the same molecule, in assay [2], the “luciferase activity normalized to lacZ activity and to a control, mCAR” value (shortened to “luciferase activity normalized … mCAR”) came out at 0.39; the “Luc. act., normalized to lacZ” value came out at 15.0; the “Normalized Luc. act., normalized to control” value stood at 0.4. In assay [3], the “Luc. act., normalized to lacZ” value was 9.5; the “Normalized Luc. act., normalized to control” value came out at 0.6; the “mDio2 promoter reporter activity” value is given as 0.60. For the same molecule, in assay [4], the “Luc. act., normalized to lacZ” value stood at 111.9; the “Normalized Luc. act., normalized to control” value is on record as 1.0; the “luciferase activity normalized to lacZ activity and to a control, mUCP2” value (“luciferase activity normalized … mUCP2” for short) was found to be 1.02. In assay [5], the “Luc. act., normalized to lacZ” value came to 28.0; the “Normalized Luc. act., normalized to control” value is listed as 1.8; the “hIFNg promoter reporter activity” value is given as 1.76. Moreover, in assay [6], the “Luc. act., normalized to lacZ” value is 0.9; the “Normalized Luc. act., normalized to control” value was determined as 0.4; the “Results of assays of transcription factor (+/- ligand) with hPPARg2” value (“Results” for short) stood at 0.43.

On to “VDR: Vitamin D Receptor (NR1I1), cDNA driver”, for which, in assay [1], the “Luc. act., normalized to lacZ” value was determined as 15.2; the “Normalized Luc. act., normalized to control” value was 2.7; the “mABCA1 promoter reporter activity” value turned out to be 2.71. In addition, in assay [2], the “luciferase activity normalized … mCAR” value is 0.69; the “Luc. act., normalized to lacZ” value was 26.5; the “Normalized Luc. act., normalized to control” value is listed as 0.7. In assay [3], the “Luc. act., normalized to lacZ” value is 23.7; the “Normalized Luc. act., normalized to control” value is recorded as 1.5; the “mDio2 promoter reporter activity” value is 1.51. In assay [4], the “Luc. act., normalized to lacZ” value was 136.2; the “Normalized Luc. act., normalized to control” value is 1.2; the “luciferase activity normalized … mUCP2” value is 1.24. Besides, in assay [5], the “Luc. act., normalized to lacZ” value was determined as 16.06; the “Normalized Luc. act., normalized to control” value is 1.0; the “hIFNg promoter reporter activity” value was found to be 1.01. Further, in assay [6], the “Luc. act., normalized to lacZ” value was 2.1; the “Normalized Luc. act., normalized to control” value is 1.0; the “Results” value amounted to 1.03.

B1: HNF4a: Hepatocyte Nuclear Factor α (NR2A1), cDNA driver (protein, UniProt P41235 1-474, looked up)
Hepatocyte nuclear factor …: MRLSKTLVDMDMADYSAALDPAYTTLEFENVQVLTMGNDTSPSEGTNLNAPNSLGVSALCAICGDRATGKHYGASSCDGCKGFFRRSVRKNHMYSCRFSRQCVVDKDKRNQCRYCRLKKCFRAGMKKEAVQNERDRISTRRSSYEDSSLPSINALLQAEVLSRQITSPVSGINGDIRAKKIASIADVCESMKEQLLVLVEWAKYIPAFCELPLDDQVALLRAHAGEHLLLGATKRSMVFKDVLLLGNDYIVPRHCPELAEMSRVSIRILDELVLPFQELQIDDNEYAYLKAIIFFDPDAKGLSDPGKIKRLRSQVQVSLEDYINDRQYDSRGRFGELLLLLPTLQSITWQMIEQIQFIKLFGMAKIDNLLQEMLLGGSPSDAPHAHHPLHPHLMQEHMGTNVIVANTMPTHLSNGQMCEWPRPRGQAATPETPQPSPPGGSGSEPYKLLPGAVATIVKPLSAIPQPTITKQEVI
On to B1, for which, in assay [1], the “Luc. act., normalized to lacZ” value is on record as 10.7; the “Normalized Luc. act., normalized to control” value came out at 1.9; the “mABCA1 promoter reporter activity” value came out at 1.90. Besides, the “regulation of the Constitutive Androstane Receptor (CAR) promoter” value in assay [2] (FIG. 2a, in words) is “Specific and strong activation”. In assay [2], the “luciferase activity normalized … mCAR” value was 16.83; the “Luc. act., normalized to lacZ” value came out at 641.2; the “Normalized Luc. act., normalized to control” value came to 16.8. In assay [3], the “Luc. act., normalized to lacZ” value was found to be 33.6; the “Normalized Luc. act., normalized to control” value came to 2.1; the “mDio2 promoter reporter activity” value turned out to be 2.14. In addition, in assay [4], the “Luc. act., normalized to lacZ” value was determined as 136.4; the “Normalized Luc. act., normalized to control” value is reported as 1.2; the “luciferase activity normalized … mUCP2” value came to 1.24. Moreover, in assay [5], the “Luc. act., normalized to lacZ” value is 8.7; the “Normalized Luc. act., normalized to control” value is reported as 0.5; the “hIFNg promoter reporter activity” value was 0.55. In assay [6], the “Luc. act., normalized to lacZ” value was 2.0; the “Normalized Luc. act., normalized to control” value worked out at 1.0; the “Results” value is on record as 1.02.

These data come from patent US20110263454A1, “Methods of Identifying Functional Characteristics of Promoters, Transcription Modifying Proteins and Transcription Modulating Agents” (Salk Institute for Biological Studies, priority 2008, published 2011).
